Measurements published in patent US9000159B2 (Glenmark Pharmaceuticals, S.A., priority 2009, dated 2015).

Target: T1, Human TRPA1 (Homo sapiens, UniProt O75762)
T1 construct: expressed in transfected cells; host or cells: CHO cells
Assay: 45Calcium uptake assay: inhibition of AITC induced cellular uptake of radioactive calcium
Type: cell-based
Conditions: AITC (30 μM) induced 45Ca uptake, Human TRPA1 expressing CHO cells; for inhibition at 1 µM: 1.0 μM test compound, read-out: Percentage inhibition at 1.0 μM; for inhibition at 10 µM: 10.0 μM test compound, read-out: Percentage inhibition at 10.0 μM; for IC50: read-out: Human IC50 value (range)
From the text: The illustrative examples of the present invention are screened for TRPA1 activity according to a modified procedure described in (a) Tóth, A. et al., Life Sciences, 2003, 73, 487-498. (b) McNamara C, R. et al., Proc. Natl. Acad. Sci. U.S.A., 2007, 104, 13525-13530. The screening of the compounds can be carried out by other methods and procedures known to persons skilled in the art.
Screening for TRPA1 Antagonist Using the ^45Calcium Uptake Assay
The inhibition of TRPA1 receptor activation was measured as inhibition of allyl isothiocyanate (AITC) induced cellular uptake of radioactive calcium. Test compounds were dissolved in DMSO to prepare 10 mM stock solution and then diluted using plain medium with 0.1% BSA and 1.8 mM CaCl2 to get desired concentration. Final concentration of DMSO in the reaction was 0.5% (v/v). Human TRPA1 expressing CHO cells were grown in F-12 DMEM medium with 10% FBS, 1% penicillin-streptomycin solution, 400 μg/ml of G-418. Cells were seeded 24 h prior to the assay in 96 well plates so as to get ˜50,000 cells per well on the day of experiment. Cells were treated with test compounds for 10 min followed by addition of AITC at a final concentration of 30 μM and 5 μCi/ml ^45Ca^+2 for 3 min. Cells were washed and lysed using buffer containing 1% Triton X-100, 0.1% deoxycholate and 0.1% SDS. Radioactivity in the lysate was measured in Packard Top count after addition of liquid scintillant. Concentration response curves were plotted as a % of maximal response obtained in the absence of test antagonist. IC50 value was calculated from concentration response curve by nonlinear regression analysis using GraphPad PRISM software.

T1 sequence (O75762 whole entry): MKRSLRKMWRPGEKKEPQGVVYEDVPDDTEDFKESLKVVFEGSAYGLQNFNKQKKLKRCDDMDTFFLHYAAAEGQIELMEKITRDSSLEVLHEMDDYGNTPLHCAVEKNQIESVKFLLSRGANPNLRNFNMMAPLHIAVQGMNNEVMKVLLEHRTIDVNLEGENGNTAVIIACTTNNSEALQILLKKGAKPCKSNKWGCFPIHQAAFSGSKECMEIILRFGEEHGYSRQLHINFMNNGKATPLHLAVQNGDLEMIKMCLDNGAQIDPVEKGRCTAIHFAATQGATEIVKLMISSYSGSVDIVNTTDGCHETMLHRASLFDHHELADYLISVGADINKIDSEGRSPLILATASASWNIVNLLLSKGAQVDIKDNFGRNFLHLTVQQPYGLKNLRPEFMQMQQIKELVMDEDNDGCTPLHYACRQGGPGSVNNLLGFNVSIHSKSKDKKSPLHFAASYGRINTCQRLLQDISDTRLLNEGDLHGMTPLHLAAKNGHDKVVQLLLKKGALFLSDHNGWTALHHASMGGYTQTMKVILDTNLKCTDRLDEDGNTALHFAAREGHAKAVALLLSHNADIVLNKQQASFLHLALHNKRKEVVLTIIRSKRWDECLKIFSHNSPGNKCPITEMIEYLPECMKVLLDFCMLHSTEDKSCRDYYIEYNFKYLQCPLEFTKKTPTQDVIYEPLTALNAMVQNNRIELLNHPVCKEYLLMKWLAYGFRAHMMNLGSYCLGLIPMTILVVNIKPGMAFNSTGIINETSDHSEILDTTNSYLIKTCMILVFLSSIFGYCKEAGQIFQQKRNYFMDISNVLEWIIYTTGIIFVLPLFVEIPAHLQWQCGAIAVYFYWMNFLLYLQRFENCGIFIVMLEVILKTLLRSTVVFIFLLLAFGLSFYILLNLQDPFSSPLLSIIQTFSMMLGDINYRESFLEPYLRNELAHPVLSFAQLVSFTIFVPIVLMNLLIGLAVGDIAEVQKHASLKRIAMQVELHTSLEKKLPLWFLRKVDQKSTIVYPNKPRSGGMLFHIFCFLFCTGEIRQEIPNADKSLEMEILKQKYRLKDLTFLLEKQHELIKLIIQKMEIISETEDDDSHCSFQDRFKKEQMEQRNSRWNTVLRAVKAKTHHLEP

Structure (SMILES) | inhibition at 1 µM [%] | inhibition at 10 µM [%] | IC50 [nM]
Cn1c(=O)c2c(ccn2CC(=O)Nc2nc(-c3ccc(F)cc3F)cs2)n(C)c1=O [Example 1, N-[4-(2,4-Difluorophenyl)-1,3-thiazol-2-yl]-2-(1,3-dimethyl-2,4-dioxo-1,2,3,4-tetrahydro-5H-pyrrolo[3,2-d]pyrimidin-5-yl)acetamide] | 23.1 | 21.4 | 
Cn1c(=O)c2c(ccn2CC(=O)Nc2nc(-c3ccc(F)c(C(F)(F)F)c3)cs2)n(C)c1=O [Example 2, 2-(1,3-Dimethyl-2,4-dioxo-1,2,3,4-tetrahydro-5H-pyrrolo[3,2-d]pyrimidin-5-yl)-N-{4-[4-fluoro-3-(trifluoromethyl)phenyl]-1,3-thiazol-2-yl}acetamide] | 35.4 | 79.5 | 
Cn1c(=O)c2c(ccn2CC(=O)Nc2nc(-c3ccc(C(F)(F)F)c(F)c3)cs2)n(C)c1=O [Example 3, 2-(1,3-Dimethyl-2,4-dioxo-1,2,3,4-tetrahydro-5H-pyrrolo[3,2-d]pyrimidin-5-yl)-N-{4-[3-fluoro-4-(trifluoromethyl)phenyl]-1,3-thiazol-2-yl}acetamide] | 94.4 | 98.8 | < 50
Cn1c(=O)c2c(ccn2CC(=O)Nc2nc(-c3ccc(Cl)c(C(F)(F)F)c3)cs2)n(C)c1=O [Example 4, 2-(1,3-Dimethyl-2,4-dioxo-1,2,3,4-tetrahydro-5H-pyrrolo[3,2-d]pyrimidin-5-yl)-N-{4-[4-chloro-3-(trifluoromethyl)phenyl]-1,3-thiazol-2-yl}acetamide] | 34.4 | 89.8 | 
Cn1c(=O)c2c(ccn2CC(=O)Nc2nc(-c3ccc(Cl)c(Cl)c3Cl)cs2)n(C)c1=O [Example 5, 2-(1,3-Dimethyl-2,4-dioxo-1,2,3,4-tetrahydro-5H-pyrrolo[3,2-d]pyrimidin-5-yl)-N-[4-(2,3,4-trichlorophenyl)-1,3-thiazol-2-yl]acetamide] | 55.3 | 82.3 | 
CC(C)COc1c(F)cc(-c2csc(NC(=O)Cn3ccc4c3c(=O)n(C)c(=O)n4C)n2)cc1F [Example 6, 2-(1,3-Dimethyl-2,4-dioxo-1,2,3,4-tetrahydro-5H-pyrrolo[3,2-d]pyrimidin-5-yl)-N-{4-[4-(2-methylpropoxy)-3,5-difluorophenyl]-1,3-thiazol-2-yl}acetamide] | 42.4 | 52.8 | 
CC(C)CCOc1c(F)cc(-c2csc(NC(=O)Cn3ccc4c3c(=O)n(C)c(=O)n4C)n2)cc1F [Example 7, N-{4-[3,5-Difluoro-4-(3-methylbutoxy)phenyl]-1,3-thiazol-2-yl}-2-(1,3-dimethyl-2,4-dioxo-1,2,3,4-tetrahydro-5H-pyrrolo[3,2-d]pyrimidin-5-yl)acetamide] | 35.5 | 37.3 | 
Cn1c(=O)c2c(ccn2CC(=O)Nc2nc(-c3cc(F)c(OCC(C)(C)C)c(F)c3)cs2)n(C)c1=O [Example 8, N-{[4-(2,2-Dimethylpropoxy)-3,5-difluorophenyl]-1,3-thiazol-2-yl}-2-(1,3-dimethyl-2,4-dioxo-1,2,3,4-tetrahydro-5H-pyrrolo[3,2-d]pyrimidin-5-yl)acetamide] | 91.9 | 100 | < 50
Cn1c(=O)c2c(ccn2CC(=O)Nc2nc(-c3ccc(F)c(C(F)(F)F)c3F)cs2)n(C)c1=O [Example 9, 2-(1,3-Dimethyl-2,4-dioxo-1,2,3,4-tetrahydro-5H-pyrrolo[3,2-d]pyrimidin-5-yl)-N-{4-[2,4-difluorophenyl-3-trifluoromethyl]-1,3-thiazol-2-yl}acetamide] | 60.7 | 91.3 | 
Cn1c(=O)c2c(ccn2CC(=O)Nc2nc(-c3cc(F)c(OC(F)F)c(F)c3)cs2)n(C)c1=O [Example 10, N-{4-[4-(Difluoromethoxy)-3,5-difluorophenyl]-1,3-thiazol-2-yl}-2-(1,3-dimethyl-2,4-dioxo-1,2,3,4-tetrahydro-5H-pyrrolo[3,2-d]pyrimidin-5-yl)acetamide] | 91 | 95.3 | 50 to 100
Cn1c(=O)c2c(ccn2CC(=O)Nc2nc(-c3cc(F)c(OCC(F)(F)F)c(F)c3)cs2)n(C)c1=O [Example 11, N-{4-[3,5-Difluoro-4-(2,2,2-trifluoroethoxy)phenyl]-1,3-thiazol-2-yl}-2-(1,3-dimethyl-2,4-dioxo-1,2,3,4-tetrahydro-5H-pyrrolo[3,2-d]pyrimidin-5-yl)acetamide] | 96.3 | 98.1 | < 50
Cn1c(=O)c2c(ccn2CC(=O)Nc2nc(-c3cc(F)c(OCCC(F)(F)F)c(F)c3)cs2)n(C)c1=O [Example 12, N-{4-[3,5-Difluoro-4-(3,3,3-trifluoropropoxy)phenyl]-1,3-thiazol-2-yl}-2-(1,3-dimethyl-2,4-dioxo-1,2,3,4-tetrahydro-5H-pyrrolo[3,2-d]pyrimidin-5-yl)acetamide] | 97.4 | 96 | < 50
Cn1c(=O)c2c(ccn2CC(=O)Nc2nc(-c3cc(Cl)c(OCC(C)(C)C)c(Cl)c3)cs2)n(C)c1=O [Example 13, N-{4-[3,5-Dichloro-4-(2,2-dimethylpropoxy)phenyl]-1,3-thiazol-2-yl}-2-(1,3-dimethyl-2,4-dioxo-1,2,3,4-tetrahydro-5H-pyrrolo[3,2-d]pyrimidin-5-yl)acetamide] | 86.5 | 98.8 | 50 to 100
Cn1c(=O)c2c(ccn2CC(=O)Nc2nc(-c3cc(Cl)c(OCCC(F)(F)F)c(Cl)c3)cs2)n(C)c1=O [Example 14, N-{4-[3,5-Dichloro-4-(3,3,3-trifluoropropoxy)phenyl]-1,3-thiazol-2-yl}-2-(1,3-dimethyl-2,4-dioxo-1,2,3,4-tetrahydro-5H-pyrrolo[3,2-d]pyrimidin-5-yl)acetamide] | 92.5 | 92.5 | < 50
Cn1c(=O)c2c(ccn2CC(=O)Nc2nc(-c3cc(Cl)c(OCCC(F)(F)C(F)(F)F)c(Cl)c3)cs2)n(C)c1=O [Example 15, N-{4-[3,5-Dichloro-4-(3,3,4,4,4-pentafluorobutoxy)phenyl]-1,3-thiazol-2-yl}-2-(1,3-dimethyl-2,4-dioxo-1,2,3,4-tetrahydro-5H-pyrrolo[3,2-d]pyrimidin-5-yl)acetamide] | 76.5 | 92.5 | 50 to 100
Cn1c(=O)c2c(ccn2CC(=O)Nc2nc(-c3cc(F)c(OCC(F)(F)F)c(Cl)c3)cs2)n(C)c1=O [Example 16, N-{4-[3-Chloro-5-fluoro-4-(2,2,2-trifluoroethoxy)phenyl]-1,3-thiazol-2-yl}-2-(1,3-dimethyl-2,4-dioxo-1,2,3,4-tetrahydro-5H-pyrrolo[3,2-d]pyrimidin-5-yl)acetamide] | 95 | 97.1 | < 50
Cn1c(=O)c2c(ccn2CC(=O)Nc2nc(-c3cc(F)c(OCC4CC4)c(F)c3)cs2)n(C)c1=O [Example 17, 2-(1,3-Dimethyl-2,4-dioxo-1,2,3,4-tetrahydro-5H-pyrrolo[3,2-d]pyrimidin-5-yl)-N-{4-[4-(cyclopropylmethoxy)-3,5-difluorophenyl]-1,3-thiazol-2-yl}acetamide] | 33.5 | 49.9 | 
Cn1c(=O)c2c(ccn2CC(=O)Nc2nc(-c3cc(F)c(OCC4CCC4)c(F)c3)cs2)n(C)c1=O [Example 18, 2-(1,3-Dimethyl-2,4-dioxo-1,2,3,4-tetrahydro-5H-pyrrolo[3,2-d]pyrimidin-5-yl)-N-{4-[4-(cyclobutylmethoxy)-3,5-difluorophenyl]-1,3-thiazol-2-yl}acetamide] | 38.4 | 38.7 | 
Cn1c(=O)c2c(ccn2CC(=O)Nc2nc(-c3cc(Cl)c(OCC4CCC4)c(Cl)c3)cs2)n(C)c1=O [Example 19, 2-(1,3-Dimethyl-2,4-dioxo-1,2,3,4-tetrahydro-5H-pyrrolo[3,2-d]pyrimidin-5-yl)-N-{4-[4-(cyclobutylmethoxy)-3,5-dichlorophenyl]-1,3-thiazol-2-yl}acetamide] | 72.1 | 76.9 | 
Cn1c(=O)c2c(ccn2CC(=O)Nc2nc(-c3cc(F)c(OCc4ccccc4C(F)(F)F)c(F)c3)cs2)n(C)c1=O [Example 20, 2-(1,3-Dimethyl-2,4-dioxo-1,2,3,4-tetrahydro-5H-pyrrolo[3,2-d]pyrimidin-5-yl)-N-{4-[3,5-difluoro-4-[2-(trifluoromethyl)benzyloxy]phenyl)-1,3-thiazol-2-yl}acetamide] | 22.6 | 67.7 | 
